Each molecule was assayed against phosphorylated active hERK2 enzyme (Homo sapiens (Human), UniProt P28482) (assay: Active Human ERK2 (hERK2) Activity Assay (IMAP-FP)). Conditions: Table 6, 0.5 nM hERK2, 30 μM ATP, 10 point titration, read-out: AERK2 IC50.
Type: biochemical
Procedure, shortened: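 IMAP fluorescence-polarization kinase assay: 0.5 nM activated hERK2 with 900 nM unlabeled plus 80 nM labeled peptide and 30 μM ATP, reacted 60 min. Quenched with IMAP beads in binding buffer with 24 mM NaCl; FP read after 60 min equilibration.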

Chain of phosphorylated active hERK2 enzyme (P28482 whole entry): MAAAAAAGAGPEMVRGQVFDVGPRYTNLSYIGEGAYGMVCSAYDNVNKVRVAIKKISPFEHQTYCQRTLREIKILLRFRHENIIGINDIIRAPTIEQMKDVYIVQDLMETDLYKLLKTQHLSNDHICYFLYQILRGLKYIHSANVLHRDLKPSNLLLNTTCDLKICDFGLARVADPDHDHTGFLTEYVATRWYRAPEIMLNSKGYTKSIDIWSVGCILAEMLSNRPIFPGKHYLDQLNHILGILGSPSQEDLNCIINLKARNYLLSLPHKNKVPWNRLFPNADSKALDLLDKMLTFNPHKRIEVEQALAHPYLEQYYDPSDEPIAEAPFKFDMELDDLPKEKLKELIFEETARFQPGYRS

Compound	IC50
C[C@@H](NC(=O)Nc1cc2[nH]nc(NCc3ccccc3)c2cn1)c1ccccc1 [Example 178, 1-[3-(benzyl-amino)-1H-pyrazolo[4,3-c]-pyridin-6-yl]-3-1-[(1R)-1-phenylethyl]urea]	4.6 nM
C[C@@H](NC(=O)Nc1cc2[nH]nc(NC(=O)C3CCOCC3)c2cn1)c1ccccc1 [Example 181, N-[6-({[(1R)-1-phenylethyl]-carbamoyl}amino)-1H-pyrazolo[4,3-c]pyridin-3-yl]-tetrahydro-2H-pyran-4-carboxamide]	4.3 nM
COC[C@@H](NC(=O)Nc1cc2[nH]nc(NCC3CC(C(C)(C)O)C3)c2cn1)c1ccccc1 (stereo partly drawn) [Example 182, 1-[3-({[3-(1-hydroxy-1-methylethyl)-cyclobutyl]methyl}amino)-1H-pyrazolo[4,3-c]pyridin-6-yl]-3-[(1S)-2-methoxy-1-phenylethyl]urea]	2.6 nM
COC[C@@H](NC(=O)Nc1cc2[nH]nc(NCC3CC(C(C)(C)O)C3)c2cn1)c1ccccc1 (stereo partly drawn) [Example 183, 1-[3-({[3-(1-hydroxy-1-methylethyl)-cyclobutyl]methyl}amino)-1H-pyrazolo[4,3-c]pyridin-6-yl]-3-[(1S)-2-methoxy-1-phenylethyl]urea]	3.6 nM
C[C@@H](NC(=O)Nc1cc2[nH]nc(NC3CCNC3)c2cn1)c1ccccc1 (stereo partly drawn) [Example 184, 1-[(1R)-1-phenylethyl]-3-[3-(pyrrolidin-3-ylamino)-1H-pyrazolo[4,3-c]pyridin-6-yl]urea]	102 nM
C[C@@H](NC(=O)Nc1cc2[nH]nc(NC3CCCC3)c2cn1)c1ccccc1 [Example 186, 1-[3-(cyclopentyl-amino)-1H-pyrazolo[4,3-c]-pyridin-6-yl]-3-[(1R)-1-phenylethyl]urea]	2.3 nM
C[C@@H](NC(=O)Nc1cc2[nH]nc(NC3CCCCC3)c2cn1)c1ccccc1 [Example 187, 1-[3-(cyclohexyl-amino)-1H-pyrazolo[4,3-c]pyridin-6-yl]-3-[(1R)-1-phenylethyl]urea]	6.8 nM

The next lines start with the values.

IC50	Compound
1 nM	C[C@@H](NC(=O)Nc1cc2[nH]nc(NCc3ccncc3)c2cn1)c1ccccc1 [Example 179, 1-[(1R)-1-phenylethyl]-3-{3-[(pyridin-4-yl-methyl)amino]-1H-pyrazolo[4,3-c]-pyridin-6-yl}urea]
17.9 nM	C=C(C)C1CC(CNc2n[nH]c3cc(NC(=O)N[C@H](C)c4ccccc4)ncc23)C1 (stereo partly drawn) [Example 180, 1-[3-({[3-(1-methylethenyl)-cyclobutyl]methyl}amino)-1H-pyrazolo[4,3-c]-pyridin-6-yl]-3-[(1R)-1-phenylethyl]urea]
1.5 nM	C[C@@H](NC(=O)Nc1cc2[nH]nc(NC3CCC3)c2cn1)c1ccccc1 [Example 185, 1-[3-(cyclobutylamino)-1H-pyrazolo[4,3-c]pyridin-6-yl]-3-[(1R)-1-phenylethyl]urea]
146 nM	C[C@@H](NC(=O)Nc1cc2[nH]nc(NC3COC3)c2cn1)c1ccccc1 [Example 188, 1-[3-(oxetan-3-yl-amino)-1H-pyrazolo[4,3-c]pyridin-6-yl]-3-[(1R)-1-phenylethyl]urea]
1.7 nM	CC(C)CNc1n[nH]c2cc(NC(=O)N[C@H](C)c3ccccc3)ncc12 [Example 189, 1-{3-[(2-methylpropyl)-amino]-1H-pyrazolo[4,3-c]-pyridin-6-yl}-3-[(1R)-1-phenylethyl]urea]
9.3 nM	C[C@@H](NC(=O)Nc1cc2[nH]nc(NCc3ccccn3)c2cn1)c1ccccc1 [Example 190, 1-[(1R)-1-phenylethyl]-3-{3-[(pyridin-2-yl-methyl)amino]-1H-pyrazolo[4,3-c]-pyridin-6-yl}urea]
64.3 nM	CC(CC(C)(C)O)Nc1n[nH]c2cc(NC(=O)N[C@H](C)c3ccccc3)ncc12 (stereo partly drawn) [Example 191, 1-{3-[(3-hydroxy-1,3-dimethylbutyl)-amino]-1H-pyrazolo[4,3-c]-pyridin-6-yl}-3-[(1R)-1-phenylethyl]urea]

From patent publication US9233979B2, “Compounds that are ERK inhibitors” (Merck Sharp & Dohme Corp., priority 2012, dated 2016)
